Measured values taken from the Deep4Chem optical property database.

Assay: solvent given as SMILES

## CCCCn1c2ccc(/C=C(\C#N)c3ccc([N+](=O)[O-])cc3)cc2c2cc(Cn3c(-c4ccc5c(c4)c4ccccc4n5CCCC)nc4ccccc43)ccc21
In C1CCOC1
  emission maximum: 539 nm
In CC#N
  emission maximum: 580 nm
In CCO
  emission maximum: 520 nm
In CCOC(C)=O
  emission maximum: 528 nm
In CN(C)C=O
  emission maximum: 581 nm
In ClCCl
  emission maximum: 568 nm
In O
  emission maximum: 570 nm
In c1ccccc1
  emission maximum: 505 nm

## c1ccc(-c2ccc(-c3ccc4c(c3)CCCO4)cc2)cc1
In C1CCCCC1
  emission maximum: 359 nm

## CCCCN1c2ccccc2Sc2cc(/C=C\c3cc(=O)oc4cc(C)ccc34)ccc21
In ClC(Cl)Cl
  emission maximum: 632 nm

## CCCCCCCCOC(=O)c1cc2ccc3ccccc3c2c(C#N)c1N
In Cc1ccccc1
  emission maximum: 467 nm

## CCOC(CN1C(=O)C2=C(c3ccsc3)N(CC(OCC)OCC)C(=O)C2=C1c1ccsc1)OCC
In ClC(Cl)Cl
  emission maximum: 524 nm

## Cc1ccc(/C(C#N)=C/c2cc(/C=C(\C#N)c3ccc(C)cc3)c(-c3ccc(N(c4ccccc4)c4ccccc4)cc3)cc2-c2ccc(N(c3ccccc3)c3ccccc3)cc2)cc1
In C1CCCCC1
  emission maximum: 453 nm
In C1CCOC1
  emission maximum: 538 nm
In CCCCCC
  emission maximum: 453 nm
In CCOC(C)=O
  emission maximum: 533 nm
In Cc1ccccc1
  emission maximum: 480 nm
In ClC(Cl)Cl
  emission maximum: 517 nm
In ClCCl
  emission maximum: 552 nm

## COc1ccc(C2=[N+]3C(=Nc4c(-c5ccccc5)c5c(n4[B-]3(F)F)-c3ccc(OC)cc3CC5)C(c3ccccc3)=C2)cc1
In ClC(Cl)Cl
  emission maximum: 732 nm

## CC(C)[Si](C#Cc1ccc(-c2c3cccc4c5cccc6c(-c7ccc(C#C[Si](C(C)C)(C(C)C)C(C)C)cc7)c7cccc8c9cccc2c9c(c34)c(c65)c78)cc1)(C(C)C)C(C)C
In Cc1ccccc1
  emission maximum: 744 nm

## CC(C)(C)c1cc(C(C)(C)C)c2oc3c(c2c1)C=CN1C(=O)C2=C4c5oc6c(C(C)(C)C)cc(C(C)(C)C)cc6c5C=CN4C(=O)C2=C31
In CN(C)C=O
  emission maximum: 658 nm
In ClC(Cl)Cl
  emission maximum: 651 nm

## CN1C(=O)c2cccc3c(-n4c5ccccc5c5ccccc54)ccc(c23)C1=O
In C1CCOC1
  emission maximum: 537 nm
In CCCCCC
  emission maximum: 440 nm
In ClC(Cl)Cl
  emission maximum: 489 nm
In ClCCl
  emission maximum: 556 nm

## O=Cc1ccc(-c2ccc(-c3nc4ccccc4s3)c(O)c2)s1
In CCO
  emission maximum: 540 nm
In ClCCl
  emission maximum: 535 nm
In O
  emission maximum: 557 nm

## c1csc(-c2ccc(-c3ccc(-c4cccs4)s3)s2)c1
In CCCCCCCCCCCCCC
  emission maximum: 474 nm
In ClCCl
  emission maximum: 480 nm

## CN1C(=CC2=C([O-])C(=Cc3sc4ccccc4[n+]3C)C2=C(C#N)C#N)C(C)(C)c2ccccc21
In ClC(Cl)Cl
  emission maximum: 708 nm

## COCCOCCOCCOCC(COCCOCCOCCOC)Oc1cc(/C=C/c2ccc(/C=C(\C#N)C(=O)c3ccccc3)cc2)c(OC(COCCOCCOCCOC)COCCOCCOCCOC)cc1/C=C/c1ccc(/C=C(\C#N)C(=O)c2ccccc2)cc1
In ClCCl
  emission maximum: 621 nm

## N#Cc1cc(N2c3ccccc3Oc3ccccc32)c(N2c3ccccc3Oc3ccccc32)cc1C#N
In c1ccc2c(c1)c1ccccc1n2-c1ccc(-c2ccc(-n3c4ccccc4c4ccccc43)cc2)cc1
  emission maximum: 612 nm

## Cc1cccc2nc(-c3ccc(-c4cc(=O)cc(-c5ccccc5)o4)cc3)c(NC3CCCCC3)n12
In ClCCl
  emission maximum: 506 nm

## F[B-]1(F)n2c(-c3ccccc3)cc(-c3ccccn3)c2N=C2C(c3ccccn3)=CC(c3ccccc3)=[N+]21
In CC#N
  emission maximum: 682 nm

## CC(C)CCCC(C)CCN1C(=O)c2ccc3c(-c4ccccc4)c4c5ccc6c7c(ccc(c(-c8ccccc8)c4c4ccc(c2c34)C1=O)c75)C(=O)N(CCC(C)CCCC(C)C)C6=O (configuration not stated)
In ClCCl
  emission maximum: 704 nm

## CC(C)(C)NC1=C2C=CC=[N+]2[B-](F)(F)n2cccc21
In C1CCCCC1
  emission maximum: 503 nm
In CC(C)=O
  emission maximum: 492 nm
In CCO
  emission maximum: 494 nm
In CCOC(C)=O
  emission maximum: 498 nm
In CO
  emission maximum: 491 nm
In OCC(F)(F)F
  emission maximum: 497.5 nm

## Oc1c(-c2ccco2)cccc1-c1nc2ccccc2s1
In CCO
  emission maximum: 575 nm
In ClCCl
  emission maximum: 577 nm
In O
  emission maximum: 569 nm
